In US4740233A, “Substituted 1,2,4-triazolo[1,5-a]-pyrimidine-2-sulfonamides and compositions and methods of controlling undesired vegetation and suppressing the nitrification of ammonium nitrogen in soil” (The Dow Chemical Company, priority 1986, dated 1988) one finds plant injury and pest or weed control data, which are given here for nine molecules.

What all share (experiment): Preemergent control of plant species
One test has as its system cotton. It is filed as in vivo, Gossypium spp. To be noted: Gossypium hirsutum, pre-emergence, 336 h; 0.25 lb/acre; read-out: percent preemergent control. As to the method: (§1) The seeds of various species of plants were planted in beds of good agricultural soil in a greenhouse. A number of compositions of the present invention, generally in the nature of an aqueous emulsion, were applied at rates listed in the table so as to deposit a predetermined amount of active ingredients uniformly throughout the surface of the bed. Another seed bed was treated only with water to serve as a control. After treatment the seed beds were maintained for two weeks under greenhouse conditions conducive for good plant growth and watered as necessary. Control refers to the reduction in growth compared to the observed results of the same untreated species.

In a further test the test system is rape. The class given is in vivo, Brassica napus. To be noted: Brassica napus, pre-emergence, 336 h; 0.25 lb/acre; read-out: percent preemergent control. As for the experimental part: as §1
The test system of the next test is soybean. It is filed as in vivo, Glycine max. Conditions: Glycine max, pre-emergence, 336 h; 0.25 lb/acre; read-out: percent preemergent control. As for the experimental part:
as §1

The test system of a further test is sugar beet. It is filed as in vivo, Beta saccharifera. Conditions: Beta vulgaris, pre-emergence, 336 h; 0.25 lb/acre; read-out: percent preemergent control. As to the method: as §1
Another test concerns jimsonweed. It is filed as in vivo, Datura stramonium. To be noted: Datura stramonium, pre-emergence, 336 h; 0.25 lb/acre; read-out: percent preemergent control. As to the method: as §1
A further test deals with annual morning glory. It is filed as in vivo, Ipomoea spp. Conditions: Ipomoea, pre-emergence, 336 h; 0.25 lb/acre; read-out: percent preemergent control. As to the method:
as §1

A further test relates to velvetleaf. The class given is in vivo, Abutilon theophrasti. Conditions: Abutilon theophrasti, pre-emergence, 336 h; 0.25 lb/acre; read-out: percent preemergent control. As for the experimental part: as §1
The next test relates to corn. It is filed as in vivo, Zea mays. To be noted: Zea mays, pre-emergence, 336 h; 0.25 lb/acre; read-out: percent preemergent control. As for the experimental part: as §1
The test system of a further test is rice. The class given is in vivo, Oryza sativa. Conditions: Oryza sativa, pre-emergence, 336 h; 0.25 lb/acre; read-out: percent preemergent control. As to the method: as §1
Another test has as its system sorghum. The class given is in vivo, Sorghum vulgare. Conditions: Sorghum, pre-emergence, 336 h; 0.25 lb/acre; read-out: percent preemergent control. As for the experimental part:
as §1

Another test concerns wheat. The class given is in vivo, Triticum aestivum. To be noted: Triticum aestivum, pre-emergence, 336 h; 0.25 lb/acre; read-out: percent preemergent control. As for the experimental part:
as §1

Another test relates to barnyardgrass. It is filed as in vivo, Echinochloa crusgalli. Conditions: Echinochloa crus-galli, pre-emergence, 336 h; 0.25 lb/acre; read-out: percent preemergent control. As for the experimental part: as §1
A further test has as its system johnson grass. The class given is in vivo, Sorghum halepense. Conditions: Sorghum halepense, pre-emergence, 336 h; 0.25 lb/acre; read-out: percent preemergent control. As to the method: as §1
Another test relates to yellow foxtail. The class given is in vivo, Setaria lutescens. To be noted: Setaria, pre-emergence, 336 h; 0.25 lb/acre; read-out: percent preemergent control. As for the experimental part: as §1
The subject of another test is yellow nutsedge. It is filed as in vivo, Cyperus esculentus. Conditions: Cyperus, pre-emergence, 336 h; 0.25 lb/acre; read-out: percent preemergent control. As for the experimental part: as §1

As for `COc1nc2nc(S(=O)(=O)Nc3c(F)ccc(C)c3F)nn2cc1C` [Compound 219], the plant injury at 280.212 g/ha in the test on cotton stood at 100%; in the test on rape, 100%; in the test on soybean it was 100%; in the test with sugar beet it was 100%; in the test on corn, 100%; in the test on rice, 50%. The plant injury at 280.212 g/ha in the test with sorghum and in the test with wheat was 100% each time. Moreover, the pest or weed control at 280.212 g/ha with jimsonweed was found to be 100%; with annual morning glory, 100%; with velvetleaf, 100%; with barnyardgrass, 100%; in the test on johnson grass, 10%; in the test with yellow foxtail, 100%. Moreover, the pest or weed control at 280.212 g/ha in the test on yellow nutsedge was found to be 100%.
Take `COc1nc2nc(S(=O)(=O)Nc3c(C)cccc3Cl)nn2cc1C` [Compound 220]: the plant injury at 280.212 g/ha in the test on cotton stood at 100%; in the test on rape, 100%; in the test with soybean, 90%; with sugar beet it was 100%; in the test on corn, 100%; with rice it was 50%. Besides, the plant injury at 280.212 g/ha in the test on sorghum and in the test on wheat was 100% in each case. Further, the pest or weed control at 280.212 g/ha turned out to be 100% with jimsonweed; 70% with annual morning glory; 100% in the test on velvetleaf; 90% in the test with barnyardgrass; 100% with johnson grass; 100% in the test on yellow foxtail. The pest or weed control at 280.212 g/ha in the test with yellow nutsedge is 100%.
`COc1nc2nc(S(=O)(=O)Nc3c(C)cccc3[N+](=O)[O-])nn2cc1C` [Compound 221]: the plant injury at 280.212 g/ha is 100% in the test on cotton; 100% with rape; 100% with soybean; 100% with sugar beet; 90% in the test on corn; 100% in the test with rice. For the same molecule, the values for the plant injury at 280.212 g/ha with sorghum and with wheat were 100% and 90%, respectively. In addition, the pest or weed control at 280.212 g/ha was determined as 100% with jimsonweed; 100% in the test on annual morning glory; 100% in the test with velvetleaf; 100% with barnyardgrass; 70% in the test with johnson grass; 100% with yellow foxtail. Besides, in the test with yellow nutsedge, the pest or weed control at 280.212 g/ha was found to be 100%.
As to `COc1nc2nc(S(=O)(=O)Nc3c([N+](=O)[O-])ccc(C)c3C)nn2cc1C` [Compound 222], the plant injury at 280.212 g/ha with cotton was 100%; with rape it was 100%; with soybean, 100%; in the test with sugar beet, 100%; in the test on corn, 40%; in the test on rice it was 90%. In addition, the plant injury at 280.212 g/ha with sorghum stood at 50%; with wheat, 0%. Besides, the pest or weed control at 280.212 g/ha with jimsonweed was 100%; with annual morning glory, 90%; in the test on velvetleaf, 100%; with barnyardgrass, 0%; in the test with johnson grass, 100%; in the test on yellow foxtail, 30%. In the test on yellow nutsedge, the pest or weed control at 280.212 g/ha was determined as 50%.
Regarding `Cc1cc(C(F)(F)F)n2nc(S(=O)(=O)Nc3c(Cl)cccc3Cl)nc2n1` [Compound 227], the plant injury at 280.212 g/ha with cotton was 60%; in the test on rape, 100%; in the test on soybean, 0%; in the test on sugar beet, 100%; with corn, 40%; with rice, 50%. In addition, the plant injury at 280.212 g/ha in the test with sorghum came to 100%; in the test on wheat, 90%. For the same molecule, the pest or weed control at 280.212 g/ha is 100% with jimsonweed; 70% with annual morning glory; 30% in the test with velvetleaf; 50% in the test on barnyardgrass; 70% in the test with johnson grass; 90% with yellow foxtail. In addition, the pest or weed control at 280.212 g/ha in the test with yellow nutsedge was 100%.
With `Cc1cc(C(F)(F)F)n2nc(S(=O)(=O)Nc3c(Cl)ccc(C)c3Cl)nc2n1` [Compound 229], the plant injury at 280.212 g/ha was determined as 100% in the test on cotton; 100% with rape; 30% in the test with soybean; 100% in the test with sugar beet; 40% in the test with corn; 10% with rice. In addition, the plant injury at 280.212 g/ha in the test with sorghum came to 90%; with wheat it was 0%. The pest or weed control at 280.212 g/ha in the test with jimsonweed is 90%; with annual morning glory, 100%; in the test on velvetleaf, 90%; in the test with barnyardgrass, 0%; with johnson grass, 0%; in the test on yellow foxtail, 0%. The pest or weed control at 280.212 g/ha with yellow nutsedge worked out at 100%.
For `Cc1cc(C(F)(F)F)n2nc(S(=O)(=O)Nc3c(F)ccc(C)c3F)nc2n1` [Compound 230], the plant injury at 280.212 g/ha came out at 100% in the test on cotton; 90% with rape; 20% in the test with soybean; 100% in the test on sugar beet; 90% in the test with corn; 50% with rice. For the same molecule, the plant injury at 280.212 g/ha in the test on sorghum was found to be 100%; with wheat, 30%. The pest or weed control at 280.212 g/ha in the test on jimsonweed was determined as 100%; with annual morning glory, 90%; in the test with velvetleaf, 90%; with barnyardgrass, 100%; in the test with johnson grass, 90%; in the test with yellow foxtail, 80%. Further, the pest or weed control at 280.212 g/ha with yellow nutsedge stood at 100%.
Turning to `CCC(=O)N(c1c(F)cccc1F)S(=O)(=O)c1nc2nc(C)ccn2n1` [Compound 276], the plant injury at 280.212 g/ha is 80% in the test with cotton; 100% in the test with rape; 10% with soybean; 100% in the test with sugar beet; 60% in the test with corn; 90% in the test on rice. The plant injury at 280.212 g/ha in the test on sorghum turned out to be 100%; with wheat it was 80%. The pest or weed control at 280.212 g/ha is 100% in the test with jimsonweed; 90% in the test on annual morning glory; 100% in the test with velvetleaf; 100% in the test with barnyardgrass; 90% in the test on johnson grass; 100% in the test with yellow foxtail. The pest or weed control at 280.212 g/ha with yellow nutsedge was determined as 100%.
Consider `Cc1ccn2nc(S(=O)(=O)N(C(=O)CC(C)(C)C)c3c(F)cccc3F)nc2n1` [Compound 278], for which the plant injury at 280.212 g/ha is 100% in the test on cotton; 100% in the test with rape; 70% in the test with soybean; 100% with sugar beet; 60% with corn; 90% in the test with rice. The plant injury at 280.212 g/ha worked out at 100% in the test with sorghum and 70% in the test on wheat. Further, the pest or weed control at 280.212 g/ha in the test with jimsonweed is 100%; in the test with annual morning glory, 100%; with velvetleaf, 100%; in the test on barnyardgrass, 100%; in the test with johnson grass it was 90%; in the test on yellow foxtail it was 100%. Besides, the pest or weed control at 280.212 g/ha with yellow nutsedge stood at 100%.
